Experiments:
Type in all cases: functional
Settings in all cases: read-out: DIZ
Helicobacter pylori [1] = assay: Antibacterial activity against Helicobacter pylori at 1 ug/disk after 3 to 5 days by paper disk diffusion method
Helicobacter pylori [2] = assay: Antibacterial activity against metronidazole-resistant Helicobacter pylori at 8 ug/disk after 3 to 5 days by paper disk diffusion method
Helicobacter pylori [3] = assay: Antibacterial activity against Helicobacter pylori at 8 ug/disk after 3 to 5 days by paper disk diffusion method
Helicobacter pylori [4] = assay: Antibacterial activity against metronidazole-sensitive Helicobacter pylori at 8 ug/disk after 3 to 5 days by paper disk diffusion method
Helicobacter pylori [5] = assay: Antibacterial activity against Helicobacter pylori at 4 ug/disk after 3 to 5 days by paper disk diffusion method
Helicobacter pylori [6] = assay: Antibacterial activity against Helicobacter pylori at 16 ug/disk after 3 to 5 days by paper disk diffusion method
Helicobacter pylori [7] = assay: Antibacterial activity against Helicobacter pylori at 0.5 ug/disk after 3 to 5 days by paper disk diffusion method
Helicobacter pylori [8] = assay: Antibacterial activity against metronidazole-resistant Helicobacter pylori at 32 ug/disk after 3 to 5 days by paper disk diffusion method
Helicobacter pylori [9] = assay: Antibacterial activity against metronidazole-sensitive Helicobacter pylori at 16 ug/disk after 3 to 5 days by paper disk diffusion method
Helicobacter pylori [10] = assay: Antibacterial activity against Helicobacter pylori at 2 ug/disk after 3 to 5 days by paper disk diffusion method
Helicobacter pylori [11] = assay: Antibacterial activity against metronidazole-resistant Helicobacter pylori at 16 ug/disk after 3 to 5 days by paper disk diffusion method
Helicobacter pylori [12] = assay: Antibacterial activity against Helicobacter pylori at 32 ug/disk after 3 to 5 days by paper disk diffusion method
Helicobacter pylori [13] = assay: Antibacterial activity against metronidazole-sensitive Helicobacter pylori at 32 ug/disk after 3 to 5 days by paper disk diffusion method

| Structure (SMILES) | zone of inhibition at 1 µg/disc (Helicobacter pylori [1]) | zone of inhibition at 8 µg/disc (Helicobacter pylori [2]) | zone of inhibition at 8 µg/disc (Helicobacter pylori [3]) | zone of inhibition at 8 µg/disc (Helicobacter pylori [4]) | zone of inhibition at 4 µg/disc (Helicobacter pylori [5]) | zone of inhibition at 16 µg/disc (Helicobacter pylori [6]) | zone of inhibition at 0.5 µg/disc (Helicobacter pylori [7]) | zone of inhibition at 32 µg/disc (Helicobacter pylori [8]) | zone of inhibition at 16 µg/disc (Helicobacter pylori [9]) | zone of inhibition at 2 µg/disc (Helicobacter pylori [10]) | zone of inhibition at 16 µg/disc (Helicobacter pylori [11]) | zone of inhibition at 32 µg/disc (Helicobacter pylori [12]) | zone of inhibition at 32 µg/disc (Helicobacter pylori [13]) |
| --- | --- | --- | --- | --- | --- | --- | --- | --- | --- | --- | --- | --- | --- |
| O=[N+]([O-])c1ccc(-c2nnc(SCc3ccccc3)s2)o1 | 9.6 mm | 19 mm | 17.4 mm | 18 mm | 14.7 mm | 21 mm | 6.7 mm | 25 mm | 22 mm | 12.1 mm | 22 mm | 24.1 mm | 25 mm |
| O=[N+]([O-])c1ccc(-c2nnc(SCc3ccccc3Cl)s2)o1 | 8.3 mm | 18 mm | 17.1 mm | 19 mm | 11.3 mm | 18.9 mm | 6.8 mm | 22 mm | 21 mm | 9.4 mm | 20 mm | 21.4 mm | 21 mm |
| O=[N+]([O-])c1ccc(-c2nnc(SCc3cccc(Cl)c3)s2)o1 | 13.1 mm | 20 mm | 20.6 mm | 21 mm | 18.4 mm | 24.1 mm | 10.3 mm | 25 mm | 25 mm | 15.8 mm | 22 mm | 25.8 mm | 28 mm |
| O=[N+]([O-])c1ccc(-c2nnc(SCc3ccc(Cl)cc3)s2)o1 | – | 16 mm | – | 6 mm | – | – | – | 17 mm | 16 mm | – | 17 mm | – | 19 mm |
| O=[N+]([O-])c1ccc(-c2nnc(SCc3ccc(Cl)cc3Cl)s2)o1 | – | 6 mm | – | 13 mm | – | – | – | 6 mm | 15 mm | – | 6 mm | – | 15 mm |
| O=[N+]([O-])c1ccc(-c2nnc(SCc3ccc(Cl)c(Cl)c3)s2)o1 | – | 6 mm | – | 11 mm | – | – | – | 12 mm | 13 mm | – | 6 mm | – | 15 mm |
| O=[N+]([O-])c1ccc(-c2nnc(SCc3cccc(Cl)c3Cl)s2)o1 | – | 6 mm | – | 15 mm | – | – | – | 17 mm | 16 mm | – | 6 mm | – | 16 mm |
| O=[N+]([O-])c1ccc(-c2nnc(SCc3c(Cl)cccc3Cl)s2)o1 | 10.9 mm | 20 mm | 19.4 mm | 21 mm | 15.2 mm | 21.9 mm | 8.7 mm | 24 mm | 23 mm | 13.1 mm | 21 mm | 23.7 mm | 26 mm |
| CC1(C)S[C@@H]2[C@H](NC(=O)[C@H](N)c3ccc(O)cc3)C(=O)N2[C@H]1C(=O)O [AMOXICILLIN] | 24.5 mm | – | – | – | – | – | – | – | – | – | – | – | – |
| Cc1ncc([N+](=O)[O-])n1CCO [METRONIDAZOLE] | – | – | 16.3 mm | – | – | – | – | – | – | – | – | – | – |

Reference: ChEMBL document CHEMBL3044827, “Synthesis and in vitro anti-Helicobacter pylori activity of 2-[(chlorobenzyl)thio]-5-(5-nitro-2-furyl)-1,3,4-thiadiazoles” (2008)
